Publication PMC12062220, “Unveiling the role of Ndrg1 gene on the oxidative stress induction behind the anticancer potential of styrylquinazoline derivatives” (Scientific Reports, 2025)

Assays:
Assay in all cases: ADP-Glo kinase assay (Promega), % inhibition at […]
Format in all cases: biochemical
EGFR = EGFR (Homo sapiens, UniProt P00533)
HER2 = target: T1, HER2 (Homo sapiens, UniProt P04626)
T1 construct: gene ERBB2

[1] = target: insulin-like growth factor 1 receptor (IGF1R) (Homo sapiens, UniProt P08069)
Sequence of insulin-like growth factor 1 receptor (IGF1R) (P08069 31-736): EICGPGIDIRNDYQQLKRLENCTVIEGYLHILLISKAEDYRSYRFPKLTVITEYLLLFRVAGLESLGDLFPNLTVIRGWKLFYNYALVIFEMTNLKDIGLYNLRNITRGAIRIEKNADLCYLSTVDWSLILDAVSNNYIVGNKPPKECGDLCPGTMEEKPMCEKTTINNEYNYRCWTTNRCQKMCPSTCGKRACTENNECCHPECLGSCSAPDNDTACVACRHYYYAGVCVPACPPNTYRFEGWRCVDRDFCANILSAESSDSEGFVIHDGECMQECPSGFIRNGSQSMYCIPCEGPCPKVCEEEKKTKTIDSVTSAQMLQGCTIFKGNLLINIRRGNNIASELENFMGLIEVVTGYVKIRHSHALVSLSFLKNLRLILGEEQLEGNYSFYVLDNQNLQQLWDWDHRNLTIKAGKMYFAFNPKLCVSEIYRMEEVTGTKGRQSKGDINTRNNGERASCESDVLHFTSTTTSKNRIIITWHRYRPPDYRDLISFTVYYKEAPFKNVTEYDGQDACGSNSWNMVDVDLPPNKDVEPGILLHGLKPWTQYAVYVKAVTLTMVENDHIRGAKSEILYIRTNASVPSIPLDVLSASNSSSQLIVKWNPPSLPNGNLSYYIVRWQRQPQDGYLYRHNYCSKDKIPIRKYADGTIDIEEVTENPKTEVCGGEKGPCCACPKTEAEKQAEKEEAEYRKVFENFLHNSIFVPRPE
Sequence of insulin-like growth factor 1 receptor (IGF1R) (P08069 741-1367): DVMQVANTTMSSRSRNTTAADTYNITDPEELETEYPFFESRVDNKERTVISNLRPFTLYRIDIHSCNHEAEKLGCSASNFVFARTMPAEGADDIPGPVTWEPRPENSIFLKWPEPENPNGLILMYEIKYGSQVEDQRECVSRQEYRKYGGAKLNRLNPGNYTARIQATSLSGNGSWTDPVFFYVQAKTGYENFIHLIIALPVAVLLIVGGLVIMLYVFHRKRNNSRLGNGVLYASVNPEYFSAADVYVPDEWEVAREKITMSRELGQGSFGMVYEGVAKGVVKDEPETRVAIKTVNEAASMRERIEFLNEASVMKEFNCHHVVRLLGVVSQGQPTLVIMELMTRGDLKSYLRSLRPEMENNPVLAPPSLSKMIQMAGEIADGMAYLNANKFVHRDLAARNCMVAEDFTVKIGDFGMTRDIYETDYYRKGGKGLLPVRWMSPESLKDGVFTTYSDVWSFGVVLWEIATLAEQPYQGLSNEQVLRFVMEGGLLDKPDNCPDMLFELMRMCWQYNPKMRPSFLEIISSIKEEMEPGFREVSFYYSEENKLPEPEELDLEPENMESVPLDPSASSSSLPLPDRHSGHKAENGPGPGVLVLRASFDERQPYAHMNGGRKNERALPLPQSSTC

T1 sequence (P04626 23-1255): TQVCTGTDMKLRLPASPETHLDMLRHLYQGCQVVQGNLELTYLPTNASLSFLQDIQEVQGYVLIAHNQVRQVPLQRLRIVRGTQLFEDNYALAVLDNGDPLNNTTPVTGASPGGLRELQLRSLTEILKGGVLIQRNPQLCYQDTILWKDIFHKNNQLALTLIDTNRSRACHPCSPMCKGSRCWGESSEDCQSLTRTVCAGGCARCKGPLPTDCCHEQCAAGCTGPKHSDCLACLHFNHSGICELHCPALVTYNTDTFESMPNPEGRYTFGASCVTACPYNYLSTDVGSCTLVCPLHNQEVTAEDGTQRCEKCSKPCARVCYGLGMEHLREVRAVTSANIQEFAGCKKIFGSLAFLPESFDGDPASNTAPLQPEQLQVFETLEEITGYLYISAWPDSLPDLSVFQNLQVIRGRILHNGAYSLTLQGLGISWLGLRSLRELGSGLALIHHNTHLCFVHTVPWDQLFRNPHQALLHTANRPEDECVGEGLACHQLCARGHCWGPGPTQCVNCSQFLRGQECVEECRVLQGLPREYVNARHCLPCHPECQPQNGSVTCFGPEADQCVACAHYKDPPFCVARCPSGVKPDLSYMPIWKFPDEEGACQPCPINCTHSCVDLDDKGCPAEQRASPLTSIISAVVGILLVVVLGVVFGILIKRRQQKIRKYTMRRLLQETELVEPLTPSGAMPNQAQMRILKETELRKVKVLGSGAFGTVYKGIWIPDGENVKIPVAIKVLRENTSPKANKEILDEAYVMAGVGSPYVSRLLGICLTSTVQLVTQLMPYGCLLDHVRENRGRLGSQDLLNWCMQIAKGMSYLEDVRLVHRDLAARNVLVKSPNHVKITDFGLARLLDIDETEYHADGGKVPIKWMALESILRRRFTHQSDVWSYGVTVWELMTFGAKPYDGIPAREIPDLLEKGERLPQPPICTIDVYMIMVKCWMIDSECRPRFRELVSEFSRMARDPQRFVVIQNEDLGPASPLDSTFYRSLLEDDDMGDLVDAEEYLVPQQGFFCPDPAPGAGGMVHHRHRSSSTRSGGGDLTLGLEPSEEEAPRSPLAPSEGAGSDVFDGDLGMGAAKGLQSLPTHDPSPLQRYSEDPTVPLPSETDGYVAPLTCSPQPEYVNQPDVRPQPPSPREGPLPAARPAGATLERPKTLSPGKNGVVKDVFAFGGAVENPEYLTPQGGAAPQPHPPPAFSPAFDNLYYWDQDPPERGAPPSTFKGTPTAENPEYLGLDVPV
Sequence of EGFR (P00533 25-1210): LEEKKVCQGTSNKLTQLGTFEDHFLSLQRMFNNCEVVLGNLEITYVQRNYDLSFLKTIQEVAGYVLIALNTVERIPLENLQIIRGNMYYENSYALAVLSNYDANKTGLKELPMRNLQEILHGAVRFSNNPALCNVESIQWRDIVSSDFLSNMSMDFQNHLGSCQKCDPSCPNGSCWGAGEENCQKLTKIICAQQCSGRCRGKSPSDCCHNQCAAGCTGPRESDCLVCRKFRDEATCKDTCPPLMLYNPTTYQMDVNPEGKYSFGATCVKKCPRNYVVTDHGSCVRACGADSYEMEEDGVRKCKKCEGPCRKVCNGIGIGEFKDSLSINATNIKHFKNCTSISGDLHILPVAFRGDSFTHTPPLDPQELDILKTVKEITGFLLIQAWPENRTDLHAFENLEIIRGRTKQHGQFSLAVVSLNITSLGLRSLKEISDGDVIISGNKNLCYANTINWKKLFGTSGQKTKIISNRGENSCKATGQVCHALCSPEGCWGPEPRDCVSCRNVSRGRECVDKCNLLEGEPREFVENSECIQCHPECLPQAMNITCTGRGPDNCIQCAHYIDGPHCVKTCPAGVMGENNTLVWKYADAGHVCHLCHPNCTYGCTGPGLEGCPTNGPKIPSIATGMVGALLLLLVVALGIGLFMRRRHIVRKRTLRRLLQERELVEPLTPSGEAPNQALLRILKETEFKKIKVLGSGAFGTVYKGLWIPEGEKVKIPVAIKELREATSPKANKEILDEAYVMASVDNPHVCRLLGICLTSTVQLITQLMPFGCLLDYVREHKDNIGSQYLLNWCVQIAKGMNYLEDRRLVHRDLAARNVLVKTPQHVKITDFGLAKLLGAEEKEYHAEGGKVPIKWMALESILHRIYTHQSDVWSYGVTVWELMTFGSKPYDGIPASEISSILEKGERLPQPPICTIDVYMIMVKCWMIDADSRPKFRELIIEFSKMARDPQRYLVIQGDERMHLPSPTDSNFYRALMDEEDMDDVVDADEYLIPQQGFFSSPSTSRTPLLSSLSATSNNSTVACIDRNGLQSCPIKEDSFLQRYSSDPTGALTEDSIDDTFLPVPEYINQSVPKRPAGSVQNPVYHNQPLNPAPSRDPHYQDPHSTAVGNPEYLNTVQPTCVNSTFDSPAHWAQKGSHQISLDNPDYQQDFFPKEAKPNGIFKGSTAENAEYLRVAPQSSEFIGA

inhibition at 1 µM (EGFR): 25 to 30% | inhibition at 1 µM (HER2): 25 to 30% | inhibition at 1 µM [1]: 40%
SMILES: COc1ccccc1/C=C/c1nc(Nc2ccc3c(c2)OCO3)c2ccccc2n1 [IS20, N-(1,3-benzodioxol-5-yl)-2-[(E)-2-(2-methoxyphenyl)vinyl] quinazolin-4-amine]
